Measurements reported in the CheMixHub viscosity set.

Assay: xn = mol fraction of the nth substance listed

NCc1ccccc1 + COc1ccccc1
303.15 K, 101 kPa
Settings	viscosity [mPa·s]
x1 = 0.1	0.939
x1 = 0.2	0.975
x1 = 0.3	1.016
x1 = 0.3999	1.061
x1 = 0.4999	1.11
x1 = 0.5999	1.163
x1 = 0.7	1.22
x1 = 0.8	1.281
x1 = 0.9	1.346

O=C[C@H](O)[C@@H](O)[C@H](O)[C@H](O)CO + CS(C)=O
viscosity [mPa·s], 101 kPa
Settings	x1 = 0.04081	x1 = 0.08276	x1 = 0.1291	x1 = 0.1784
298.15 K	3.819	8.234	21.23	62.65
308.15 K	2.988	5.977	13.9	36.04
318.15 K	2.408	4.525	9.672	22.4

O=CN1CCOCC1 + Cc1cc(C)cc(C)c1
298.15 K, 101.3 kPa
Settings	viscosity [mPa·s]
x2 = 0.02898	7.041
x2 = 0.0601	6.315
x2 = 0.08748	5.789
x2 = 0.1453	4.838
x2 = 0.2504	3.53
x2 = 0.3197	2.903
x2 = 0.4426	2.093
x2 = 0.5274	1.701
x2 = 0.6167	1.375
x2 = 0.661	1.264
x2 = 0.7503	1.058
x2 = 0.8348	0.877
x2 = 0.9476	0.731

O=CN1CCOCC1 + Cc1ccc(C)cc1
viscosity [mPa·s]
Settings	298.15 K	303.15 K	313.15 K	323.15 K
101 kPa, x2 = 0.1	5.473	4.774	3.78	3.059
101 kPa, x2 = 0.2	3.996	3.557	2.865	2.378
101 kPa, x2 = 0.3	3.008	2.716	2.243	1.893
101 kPa, x2 = 0.4	2.311	2.107	1.782	1.528
101 kPa, x2 = 0.5	1.837	1.7	1.443	1.263
101 kPa, x2 = 0.6	1.38	1.295	1.098	0.944
101 kPa, x2 = 0.7	1.099	1.018	0.8763	0.7736
101 kPa, x2 = 0.8	0.8844	0.824	0.7219	0.6357
101 kPa, x2 = 0.9	0.731	0.6863	0.6047	0.5387
101.3 kPa, x2 = 0.02757	6.848	–	–	–
101.3 kPa, x2 = 0.05782	6.12	–	–	–
101.3 kPa, x2 = 0.09608	5.439	–	–	–
101.3 kPa, x2 = 0.1653	4.378	–	–	–
101.3 kPa, x2 = 0.2769	3.14	–	–	–
101.3 kPa, x2 = 0.355	2.505	–	–	–
101.3 kPa, x2 = 0.4708	1.842	–	–	–
101.3 kPa, x2 = 0.5471	1.542	–	–	–
101.3 kPa, x2 = 0.6377	1.231	–	–	–
101.3 kPa, x2 = 0.6871	1.093	–	–	–
101.3 kPa, x2 = 0.7745	0.899	–	–	–
101.3 kPa, x2 = 0.8554	0.772	–	–	–
101.3 kPa, x2 = 0.9319	0.668	–	–	–

O=CN1CCOCC1 + Cc1cccc(C)c1
viscosity [mPa·s]
Settings	298.15 K	303.15 K	313.15 K	323.15 K
101 kPa, x2 = 0.1	5.508	4.826	3.793	3.081
101 kPa, x2 = 0.2	4.047	3.589	2.886	2.4
101 kPa, x2 = 0.3	3.049	2.741	2.257	1.905
101 kPa, x2 = 0.4	2.34	2.132	1.778	1.522
101 kPa, x2 = 0.5	1.792	1.646	1.381	1.192
101 kPa, x2 = 0.6	1.38	1.267	1.076	0.9311
101 kPa, x2 = 0.7	1.082	1.002	0.8623	0.7574
101 kPa, x2 = 0.8	0.8664	0.8124	0.708	0.6298
101 kPa, x2 = 0.9	0.7069	0.6603	0.586	0.5286
101.3 kPa, x2 = 0.03245	7.014	–	–	–
101.3 kPa, x2 = 0.06364	6.442	–	–	–
101.3 kPa, x2 = 0.09907	5.89	–	–	–
101.3 kPa, x2 = 0.1608	5.016	–	–	–
101.3 kPa, x2 = 0.2806	3.707	–	–	–
101.3 kPa, x2 = 0.3561	3.033	–	–	–
101.3 kPa, x2 = 0.4744	2.278	–	–	–
101.3 kPa, x2 = 0.5701	1.829	–	–	–
101.3 kPa, x2 = 0.6556	1.511	–	–	–
101.3 kPa, x2 = 0.6984	1.38	–	–	–
101.3 kPa, x2 = 0.7819	1.159	–	–	–
101.3 kPa, x2 = 0.876	0.961	–	–	–
101.3 kPa, x2 = 0.9337	0.875	–	–	–
